≈ marks a conversion by molar mass, not a printed value. Each block holds one compound with its values, some of them ahead of it.
Assays:
[1] = Solubility of kinase inhibitors in aqueous γ-cyclodextrin media; format: physicochemical; conditions: aqueous with cosolvent or surfactant or cyclodextrin, thermodynamic from solid
Description: Kinase inhibitors were suspended in aqueous media consisting of pure water, aqueous γ-cyclodextrin solution, aqueous solution containing γ-cyclodextrin and tyloxapol (1% w/v), and aqueous eye drop medium containing γ-cyclodextrin, benzalkonium chloride (0.02% w/v), disodium edetate (0.10% w/v) and sodium chloride (0.05% w/v). The concentration of γ-cyclodextrin varied depending on the kinase inhibitor. The solubility was determined as described in Example 10.

[2] = Solubility of kinase inhibitors in pure water (S0) from phase-solubility profiles; format: physicochemical; conditions: for solubility: 25 °C, water, thermodynamic from solid, read-out: S0 (mg/mL), solubility in pure water
Description: (§1) Kinase inhibitors were suspended in aqueous solutions containing from 1% (w/v) to 15% (w/v) γ-cyclodextrin.

[3] = Stability constant (K1:1) of active pharmaceutical ingredient/γ-cyclodextrin complexes from phase-solubility profiles; format: physicochemical; conditions: initial linear part of phase-solubility profile
Description: as §1

[4] = 25° C.; cited from earlier work
[5] = aqueous eye drop medium with 4% w/v γ-cyclodextrin, eye drop medium: 4 % w/v γ-cyclodextrin, benzalkonium chloride 0.02%, disodium edetate 0.10%, sodium chloride 0.05%, read-out: Solubility (mg/mL) Eye drops
[6] = aqueous solution with 4 % w/v γ-cyclodextrin and tyloxapol (1% w/v), read-out: Solubility (mg/mL) Tyloxapol
[7] = aqueous γ-cyclodextrin solution, 4 % w/v γ-cyclodextrin, read-out: Solubility (mg/mL) γ-Cyclodextrin

SMILES: COc1cc2c(Oc3ccc4[nH]c(C)cc4c3F)ncnc2cc1OCCCN1CCCC1 [Cediranib]
solubility ([1]; aqueous eye drop medium with 12% w/v γ-cyclodextrin, eye drop medium: 12 % w/v γ-cyclodextrin, benzalkonium chloride 0.02%, disodium edetate 0.10%, sodium chloride 0.05%, read-out: Solubility (mg/mL) Eye drops): 4.1 mg/mL (≈ 9100 µM)
solubility ([1]; aqueous solution with 12 % w/v γ-cyclodextrin and tyloxapol (1% w/v), read-out: Solubility (mg/mL) Tyloxapol): 2.8 mg/mL (≈ 6220 µM)
solubility ([1]; aqueous γ-cyclodextrin solution, 12 % w/v γ-cyclodextrin, read-out: Solubility (mg/mL) γ-Cyclodextrin): 2 mg/mL (≈ 4440 µM)
solubility [2]: 1.2 mg/mL (≈ 2660 µM)
K1:1 (M^−1), stability constant of drug/γ-cyclodextrin complex [3]: 23 M⁻¹

SMILES: OC[C@H]1O[C@@H]2O[C@H]3[C@H](O)[C@@H](O)[C@@H](O[C@H]4[C@H](O)[C@@H](O)[C@@H](O[C@H]5[C@H](O)[C@@H](O)[C@@H](O[C@H]6[C@H](O)[C@@H](O)[C@@H](O[C@H]7[C@H](O)[C@@H](O)[C@@H](O[C@H]1[C@H](O)[C@H]2O)O[C@@H]7CO)O[C@@H]6CO)O[C@@H]5CO)O[C@@H]4CO)O[C@@H]3CO [α-cyclodextrin]
solubility in pure water [4]: 129500 ± 700 µg/mL (≈ 133000 µM)

SMILES: OC[C@H]1O[C@@H]2O[C@H]3[C@H](O)[C@@H](O)[C@@H](O[C@H]4[C@H](O)[C@@H](O)[C@@H](O[C@H]5[C@H](O)[C@@H](O)[C@@H](O[C@H]6[C@H](O)[C@@H](O)[C@@H](O[C@H]7[C@H](O)[C@@H](O)[C@@H](O[C@H]8[C@H](O)[C@@H](O)[C@@H](O[C@H]9[C@H](O)[C@@H](O)[C@@H](O[C@H]1[C@H](O)[C@H]2O)O[C@@H]9CO)O[C@@H]8CO)O[C@@H]7CO)O[C@@H]6CO)O[C@@H]5CO)O[C@@H]4CO)O[C@@H]3CO [γ-cyclodextrin]
solubility in pure water [4]: 249200 ± 200 µg/mL (≈ 192000 µM)

Next, values leading:

solubility [1, 5]: 0.007 mg/mL (≈ 18.1 µM)
solubility [1, 6]: 0.008 mg/mL (≈ 20.7 µM)
solubility [1, 7]: 0.003 mg/mL (≈ 7.76 µM)
solubility [2]: 0.0004 mg/mL (≈ 1.03 µM)
K1:1 (M^−1), stability constant of drug/γ-cyclodextrin complex [3]: 260 M⁻¹
SMILES: CNC(=O)c1ccccc1Sc1ccc2c(/C=C/c3ccccn3)n[nH]c2c1 [Axitinib]

S0 (mg/mL), solubility in pure water [2]: 0.006 mg/mL
K1:1 (M^−1), stability constant of drug/γ-cyclodextrin complex [3]: 680 M⁻¹
SMILES: CN1CCN(c2ccc3nc(-c4c(N)c5c(F)cccc5[nH]c4=O)[nH]c3c2)CC1 [Dovitinib]

solubility ([1]; aqueous eye drop medium with 8% w/v γ-cyclodextrin, eye drop medium: 8 % w/v γ-cyclodextrin, benzalkonium chloride 0.02%, disodium edetate 0.10%, sodium chloride 0.05%, read-out: Solubility (mg/mL) Eye drops): 0.07 mg/mL (≈ 187 µM)
solubility ([1]; aqueous solution with 8 % w/v γ-cyclodextrin and tyloxapol (1% w/v), read-out: Solubility (mg/mL) Tyloxapol): 0.04 mg/mL (≈ 107 µM)
solubility ([1]; aqueous γ-cyclodextrin solution, 8 % w/v γ-cyclodextrin, read-out: Solubility (mg/mL) γ-Cyclodextrin): 0.09 mg/mL (≈ 241 µM)
solubility [2]: 0.014 mg/mL (≈ 37.5 µM)
K1:1 (M^−1), stability constant of drug/γ-cyclodextrin complex [3]: 140 M⁻¹
SMILES: CC1(C)CNc2cc(NC(=O)c3cccnc3NCc3ccncc3)ccc21 [Motesanib]

solubility ([1]; aqueous eye drop medium with 16% w/v γ-cyclodextrin, eye drop medium: 16 % w/v γ-cyclodextrin, benzalkonium chloride 0.02%, disodium edetate 0.10%, sodium chloride 0.05%, read-out: Solubility (mg/mL) Eye drops): 0.01 mg/mL (≈ 22.9 µM)
solubility ([1]; aqueous solution with 16 % w/v γ-cyclodextrin and tyloxapol (1% w/v), read-out: Solubility (mg/mL) Tyloxapol): 0.006 mg/mL (≈ 13.7 µM)
solubility ([1]; aqueous γ-cyclodextrin solution, 16 % w/v γ-cyclodextrin, read-out: Solubility (mg/mL) γ-Cyclodextrin): 0.007 mg/mL (≈ 16 µM)
solubility [2]: 0.0006 mg/mL (≈ 1.37 µM)
K1:1 (M^−1), stability constant of drug/γ-cyclodextrin complex [3]: 13 M⁻¹
SMILES: Cc1ccc(Nc2nccc(N(C)c3ccc4c(C)n(C)nc4c3)n2)cc1S(N)(=O)=O [Pazopanib]

solubility [1, 5]: 0.0008 mg/mL (≈ 1.66 µM)
solubility [1, 6]: 0.005 mg/mL (≈ 10.4 µM)
solubility [1, 7]: 0.0005 mg/mL (≈ 1.04 µM)
solubility [2]: 0.0001 mg/mL (≈ 0.207 µM)
K1:1 (M^−1), stability constant of drug/γ-cyclodextrin complex [3]: 94 M⁻¹
SMILES: CNC(=O)c1cc(Oc2ccc(NC(=O)Nc3ccc(Cl)c(C(F)(F)F)c3)c(F)c2)ccn1 [Regorafenib]

Source: patent publication US20190343846A1, “PREPARATION OF SOLID CYCLODEXTRIN COMPLEXES FOR OPHTHALMIC ACTIVE PHARMACEUTICAL INGREDIENT DELIVERY” (OCULIS SA, priority 2016, published 2019)
